{"source": "ChEMBL document CHEMBL1201862", "about": "“PubChem BioAssay data set” (2004)", "key": {"[1]": {"target": "Glyceraldehyde-3-phosphate dehydrogenase (Homo sapiens, UniProt P04406)", "sequence (P04406 whole entry)": "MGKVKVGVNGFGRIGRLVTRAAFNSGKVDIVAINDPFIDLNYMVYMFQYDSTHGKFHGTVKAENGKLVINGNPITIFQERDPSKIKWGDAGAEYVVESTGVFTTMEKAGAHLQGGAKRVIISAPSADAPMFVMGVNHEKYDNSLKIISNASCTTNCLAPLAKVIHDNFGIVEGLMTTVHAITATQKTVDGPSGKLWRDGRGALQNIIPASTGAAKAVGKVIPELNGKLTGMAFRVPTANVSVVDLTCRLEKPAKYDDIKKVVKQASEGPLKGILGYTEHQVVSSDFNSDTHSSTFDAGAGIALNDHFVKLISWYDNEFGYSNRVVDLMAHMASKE"}, "[2]": {"target": "Voltage-gated inwardly rectifying potassium channel KCNH2 (Homo sapiens, UniProt Q12809)", "sequence (Q12809 whole entry)": "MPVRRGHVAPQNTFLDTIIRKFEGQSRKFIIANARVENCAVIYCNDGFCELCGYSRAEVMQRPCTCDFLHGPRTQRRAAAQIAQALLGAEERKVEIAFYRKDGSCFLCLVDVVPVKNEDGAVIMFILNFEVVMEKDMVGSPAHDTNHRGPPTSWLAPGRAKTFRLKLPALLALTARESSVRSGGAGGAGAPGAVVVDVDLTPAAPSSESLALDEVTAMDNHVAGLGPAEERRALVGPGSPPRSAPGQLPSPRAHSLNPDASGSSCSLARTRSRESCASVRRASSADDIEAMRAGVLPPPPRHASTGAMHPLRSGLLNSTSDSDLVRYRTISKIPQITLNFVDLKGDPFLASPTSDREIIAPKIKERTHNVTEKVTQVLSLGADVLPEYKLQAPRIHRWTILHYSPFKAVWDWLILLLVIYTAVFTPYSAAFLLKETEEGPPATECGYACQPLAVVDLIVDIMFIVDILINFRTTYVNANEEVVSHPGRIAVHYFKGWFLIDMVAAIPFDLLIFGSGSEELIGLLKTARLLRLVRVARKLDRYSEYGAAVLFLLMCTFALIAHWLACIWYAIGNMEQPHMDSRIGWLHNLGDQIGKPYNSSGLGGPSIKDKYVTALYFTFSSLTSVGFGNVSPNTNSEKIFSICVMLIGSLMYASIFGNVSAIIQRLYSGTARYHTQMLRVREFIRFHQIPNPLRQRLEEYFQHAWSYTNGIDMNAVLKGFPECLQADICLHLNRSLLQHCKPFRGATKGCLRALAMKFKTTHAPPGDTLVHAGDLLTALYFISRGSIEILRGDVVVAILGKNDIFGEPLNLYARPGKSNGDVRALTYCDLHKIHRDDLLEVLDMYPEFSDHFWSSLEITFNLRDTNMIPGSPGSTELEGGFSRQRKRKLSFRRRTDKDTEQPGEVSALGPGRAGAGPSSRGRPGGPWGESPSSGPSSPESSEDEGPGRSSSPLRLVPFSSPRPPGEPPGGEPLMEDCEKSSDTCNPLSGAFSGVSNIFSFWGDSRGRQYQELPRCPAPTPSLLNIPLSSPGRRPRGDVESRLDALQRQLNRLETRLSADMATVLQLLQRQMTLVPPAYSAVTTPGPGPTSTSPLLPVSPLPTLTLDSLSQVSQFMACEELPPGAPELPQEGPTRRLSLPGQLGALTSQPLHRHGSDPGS", "experiment": "hERG protection from proarrhythmic block, potency, dose response, cell-based, thallium flux (AID 2121)", "assay_type": "ADME"}, "HT-1080": {"system": "HT-1080", "experiment": "cytotoxicity in HT1080 fibrosarcoma cells, cell-based, fluorescence readout (AID 620)", "assay_type": "functional", "details": "Homo sapiens"}, "[3]": {"target": "Luciferin 4-monooxygenase (Photinus pyralis, UniProt P08659)", "sequence (P08659 whole entry)": "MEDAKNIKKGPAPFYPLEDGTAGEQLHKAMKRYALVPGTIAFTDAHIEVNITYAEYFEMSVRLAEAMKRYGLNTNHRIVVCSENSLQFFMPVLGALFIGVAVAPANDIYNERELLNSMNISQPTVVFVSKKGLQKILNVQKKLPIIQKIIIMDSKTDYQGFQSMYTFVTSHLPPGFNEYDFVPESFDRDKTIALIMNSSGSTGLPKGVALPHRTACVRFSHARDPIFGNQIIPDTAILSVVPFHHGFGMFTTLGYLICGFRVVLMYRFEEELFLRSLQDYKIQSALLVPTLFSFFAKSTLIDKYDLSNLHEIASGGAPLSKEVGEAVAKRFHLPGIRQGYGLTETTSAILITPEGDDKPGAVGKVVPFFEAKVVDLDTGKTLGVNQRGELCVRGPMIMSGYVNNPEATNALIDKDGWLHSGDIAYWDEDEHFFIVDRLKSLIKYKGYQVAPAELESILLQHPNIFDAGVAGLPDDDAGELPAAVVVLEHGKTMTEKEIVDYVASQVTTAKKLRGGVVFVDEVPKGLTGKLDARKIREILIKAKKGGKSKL", "experiment": "Counter Screen for Luciferase-based Assay Positives. [Related pubchem assays: 620, 618, 411 ]"}, "Cytochrome P450 2C19": {"target": "Cytochrome P450 2C19 (Homo sapiens, UniProt P33261)", "sequence (P33261 whole entry)": "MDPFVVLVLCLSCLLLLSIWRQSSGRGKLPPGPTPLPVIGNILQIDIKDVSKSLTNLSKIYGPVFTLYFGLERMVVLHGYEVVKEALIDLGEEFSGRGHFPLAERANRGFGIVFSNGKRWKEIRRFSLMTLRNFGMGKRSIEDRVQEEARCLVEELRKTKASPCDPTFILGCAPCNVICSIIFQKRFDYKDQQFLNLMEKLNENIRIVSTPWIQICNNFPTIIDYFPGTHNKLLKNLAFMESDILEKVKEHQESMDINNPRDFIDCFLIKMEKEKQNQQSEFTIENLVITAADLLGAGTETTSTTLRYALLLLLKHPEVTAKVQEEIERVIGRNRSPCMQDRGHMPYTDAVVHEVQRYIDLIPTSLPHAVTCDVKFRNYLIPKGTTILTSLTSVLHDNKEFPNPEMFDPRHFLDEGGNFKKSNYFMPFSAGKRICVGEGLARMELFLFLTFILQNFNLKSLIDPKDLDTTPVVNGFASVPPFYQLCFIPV", "experiment": "Cytochrome panel assay with activity outcomes. Panel member name: p450-cyp2c19 Compounds with AC50 equal or less than 10 uM are considered active", "assay_type": "functional", "details": "read-out: AC50"}, "Prothrombin": {"target": "Prothrombin (Homo sapiens, UniProt P00734)", "experiment": "Thrombin 1536 HTS Dose Response Confirmation. [Related pubchem assays: 1046 (Thrombin 1536 HTS; hits were confirmed in this assay)]", "assay_type": "functional"}, "[4]": {"experiment": "P. falciparum 3D7-ScDHODH growth inhibitors, dose response, SYBR Green, dry powder samples (AID 1159570);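 also: parasite growth measured after 72 hours of compound exposure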", "assay_type": "functional, cell-based"}, "[5]": {"experiment": "HepG2 cell cytotoxicity, dose response, cytotoxicity control, plate reader, dry powder samples (AID 1159569);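 also: inhibitor potency with signal falling toward the positive control level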", "assay_type": "functional, cell-based"}, "[6]": {"experiment": "P. falciparum Dd2 growth inhibitors, dose response, SYBR Green, cherry-picked samples (AID 1159567)", "assay_type": "functional, cell-based"}, "HEK293 [7]": {"system": "HEK293", "experiment": "cells", "details": "Homo sapiens"}, "[8]": {"experiment": "ADAM10 inhibitors, peptide cleavage, dose response, biochemical, QFRET (AID 743254);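 also: EDANS fluorescence gain as the protease cuts the substrate; inhibitor potency against ADAM10 proteolytic activity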"}, "Paired box protein Pax-8": {"target": "Paired box protein Pax-8 (Homo sapiens, UniProt Q06710)", "sequence (Q06710 whole entry)": "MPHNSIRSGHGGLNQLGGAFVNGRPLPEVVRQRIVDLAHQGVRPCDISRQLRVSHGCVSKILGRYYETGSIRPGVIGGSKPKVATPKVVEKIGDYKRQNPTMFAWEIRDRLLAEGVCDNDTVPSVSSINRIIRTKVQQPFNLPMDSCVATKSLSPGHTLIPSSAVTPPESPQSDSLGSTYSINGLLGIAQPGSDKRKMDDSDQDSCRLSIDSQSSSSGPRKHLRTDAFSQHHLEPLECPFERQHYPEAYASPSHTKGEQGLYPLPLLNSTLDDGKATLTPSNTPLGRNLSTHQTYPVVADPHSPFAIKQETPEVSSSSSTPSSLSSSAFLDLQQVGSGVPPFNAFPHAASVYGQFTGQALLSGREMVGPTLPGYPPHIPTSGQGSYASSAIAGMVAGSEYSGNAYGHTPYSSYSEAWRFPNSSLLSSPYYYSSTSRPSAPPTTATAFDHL", "experiment": "inhibitors of PAX8-driven TPO luciferase reporter, dose response, RMG-I cells, cherry-pick (AID 687027);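 also: luciferase reporter driven by Pax8 target thyroperoxidase promoter measured by SteadyGlo luminescence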", "assay_type": "functional, cell-based"}, "[9]": {"target": "Disintegrin and metalloproteinase domain-containing protein 17 (Homo sapiens, UniProt P78536)", "sequence (P78536 whole entry, the tested form may be a part)": "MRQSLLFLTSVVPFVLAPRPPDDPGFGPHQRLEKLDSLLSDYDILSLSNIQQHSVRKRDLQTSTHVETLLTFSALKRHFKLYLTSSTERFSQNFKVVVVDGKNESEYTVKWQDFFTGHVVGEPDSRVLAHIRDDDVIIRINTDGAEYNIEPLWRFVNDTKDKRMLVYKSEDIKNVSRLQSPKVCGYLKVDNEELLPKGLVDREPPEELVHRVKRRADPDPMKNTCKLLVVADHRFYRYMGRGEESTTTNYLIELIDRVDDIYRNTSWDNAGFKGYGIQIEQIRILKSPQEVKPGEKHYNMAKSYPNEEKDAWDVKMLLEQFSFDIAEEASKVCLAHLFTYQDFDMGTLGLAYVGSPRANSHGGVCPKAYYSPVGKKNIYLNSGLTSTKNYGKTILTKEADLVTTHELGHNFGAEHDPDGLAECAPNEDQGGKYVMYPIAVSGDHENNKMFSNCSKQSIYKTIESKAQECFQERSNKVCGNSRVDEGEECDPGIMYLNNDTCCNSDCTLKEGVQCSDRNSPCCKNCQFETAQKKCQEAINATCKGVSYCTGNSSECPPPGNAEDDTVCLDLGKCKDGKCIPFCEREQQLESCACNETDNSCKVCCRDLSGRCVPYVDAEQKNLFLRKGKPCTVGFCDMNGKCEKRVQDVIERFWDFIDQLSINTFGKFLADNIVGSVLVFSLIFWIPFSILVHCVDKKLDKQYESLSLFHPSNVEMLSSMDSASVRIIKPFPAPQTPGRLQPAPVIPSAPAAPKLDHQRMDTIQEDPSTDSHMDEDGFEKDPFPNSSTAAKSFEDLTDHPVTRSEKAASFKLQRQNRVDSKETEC", "experiment": "ADAM17 protease inhibitors, dose response, counter-screen for ADAM10 exosite inhibitor project, biochemical, quenched FRET substrate (AID 743253)"}, "HEK293 [10]": {"system": "HEK293", "experiment": "cells", "details": "Homo sapiens", "remark": "listed apart in the source"}, "[11]": {"experiment": "cytotoxicity in OVCAR8 ovarian cancer cells, dose response, PAX8 project, cell-based, plate reader, dry powder samples (AID 743197)", "assay_type": "functional", "details": "OVCAR-8"}, "[12]": {"experiment": "P. falciparum ATP4 D1247Y mutant growth inhibitors, dose response, NITD609-resistant line, SYBR Green, dry powder (AID 1159571);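 also: parasites synchronized at ring stage by sorbitol before testing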", "assay_type": "functional, cell-based"}, "[13]": {"experiment": "IGROV1 ovarian cancer cell cytotoxicity, dose response, PAX8 inhibitor project, plate reader, dry powder samples (AID 743043)", "assay_type": "functional, cell-based", "details": "IGROV-1"}, "[14]": {"experiment": "NIH:OVCAR-3 ovarian cancer cell cytotoxicity, dose response, PAX8 inhibitor project, plate reader, dry powder samples (AID 743044)", "assay_type": "functional, cell-based"}, "[15]": {"experiment": "P. falciparum Dd2 growth inhibitors, dose response, SYBR Green, dry powder samples (AID 1159566);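 also: potency for growth inhibition with lower SYBR green DNA signal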", "assay_type": "functional, cell-based"}, "[16]": {"experiment": "Counterscreen for IDE inhibitors: Luminescence-based cell-based high throughput dose response assay to identify compounds that are cytotoxic to HEK cells. [Related pubchem assays: 434962 (Primary screen (IDE inhibitors in singlicate)), 449730 (Counterscreen (Cytotoxicity in triplicate)), 435028 (Confirmation (IDE inhibitors in triplicate)) …", "assay_type": "functional", "details": "HEK293"}, "Insulin-degrading enzyme": {"target": "T1, Insulin-degrading enzyme (Homo sapiens, UniProt P14735)", "T1 sequence (P14735 whole entry)": "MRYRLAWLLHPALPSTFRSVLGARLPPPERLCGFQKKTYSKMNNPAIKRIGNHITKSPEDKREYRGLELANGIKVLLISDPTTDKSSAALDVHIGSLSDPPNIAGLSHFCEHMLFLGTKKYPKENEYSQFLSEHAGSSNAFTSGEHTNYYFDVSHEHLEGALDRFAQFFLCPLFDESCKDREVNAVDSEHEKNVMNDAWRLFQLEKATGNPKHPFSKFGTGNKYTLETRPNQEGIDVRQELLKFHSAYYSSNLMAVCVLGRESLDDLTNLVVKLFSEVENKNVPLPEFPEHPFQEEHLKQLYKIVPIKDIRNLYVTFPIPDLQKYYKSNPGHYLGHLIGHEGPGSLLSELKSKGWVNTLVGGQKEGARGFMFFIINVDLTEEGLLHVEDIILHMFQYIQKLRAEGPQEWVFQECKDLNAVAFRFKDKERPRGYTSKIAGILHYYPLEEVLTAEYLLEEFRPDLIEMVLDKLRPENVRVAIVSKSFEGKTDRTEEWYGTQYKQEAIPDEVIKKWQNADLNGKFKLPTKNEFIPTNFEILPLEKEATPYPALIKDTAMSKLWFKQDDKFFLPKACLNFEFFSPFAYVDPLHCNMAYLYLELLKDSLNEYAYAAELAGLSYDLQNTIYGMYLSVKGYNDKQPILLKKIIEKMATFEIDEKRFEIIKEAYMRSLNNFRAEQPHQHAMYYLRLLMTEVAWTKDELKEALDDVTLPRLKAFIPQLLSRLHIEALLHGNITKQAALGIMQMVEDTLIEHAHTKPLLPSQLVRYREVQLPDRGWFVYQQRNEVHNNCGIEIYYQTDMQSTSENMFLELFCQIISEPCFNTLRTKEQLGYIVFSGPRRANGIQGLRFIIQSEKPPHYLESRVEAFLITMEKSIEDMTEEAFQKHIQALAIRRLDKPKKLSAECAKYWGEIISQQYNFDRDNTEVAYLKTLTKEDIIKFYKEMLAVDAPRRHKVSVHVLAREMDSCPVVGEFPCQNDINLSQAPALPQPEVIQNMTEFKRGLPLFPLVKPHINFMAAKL", "experiment": "Dose Response: Fluorescence polarization-based cell-based high throughput dose response assay for inhibitors of insulin-degrading enzyme (IDE). [Related pubchem assays: 434962 (Primary screen (IDE inhibitors in singlicate)), 449730 (Counterscreen (Cytotoxicity in triplicate)), 435028 (Confirmation (IDE inhibitors in triplicate)), 434984 (Summary …", "assay_type": "functional"}, "[17]": {"target": "T2, Polyadenylate-binding protein 1 (Homo sapiens, UniProt P11940)", "T2 sequence (P11940 whole entry)": "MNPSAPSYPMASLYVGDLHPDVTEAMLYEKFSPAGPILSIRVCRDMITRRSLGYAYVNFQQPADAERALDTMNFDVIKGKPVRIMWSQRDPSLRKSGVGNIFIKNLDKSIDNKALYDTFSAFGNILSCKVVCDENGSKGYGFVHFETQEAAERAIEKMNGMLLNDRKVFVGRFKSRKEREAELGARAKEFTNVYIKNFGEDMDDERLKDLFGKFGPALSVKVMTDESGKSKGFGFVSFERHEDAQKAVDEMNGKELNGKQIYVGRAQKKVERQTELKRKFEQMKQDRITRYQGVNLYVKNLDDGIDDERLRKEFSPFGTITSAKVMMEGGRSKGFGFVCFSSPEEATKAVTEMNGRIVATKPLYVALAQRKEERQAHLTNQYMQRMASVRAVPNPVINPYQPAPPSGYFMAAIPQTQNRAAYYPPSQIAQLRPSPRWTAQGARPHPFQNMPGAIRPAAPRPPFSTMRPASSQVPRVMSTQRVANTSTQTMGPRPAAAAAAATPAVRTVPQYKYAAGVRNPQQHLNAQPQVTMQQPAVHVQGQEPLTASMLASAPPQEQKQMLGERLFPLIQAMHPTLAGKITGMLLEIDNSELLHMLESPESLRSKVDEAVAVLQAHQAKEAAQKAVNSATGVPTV", "experiment": "PABP1 MLLE–PAM2 binding inhibitor potency, dose response, biochemical, fluorescence polarization, FITC-PAM2 peptide (AID 602259)", "assay_type": "functional", "details": "read-out: IC50_Mean"}, "[18]": {"target": "T2, Polyadenylate-binding protein 1", "experiment": "PABP1 MLLE–PAM2 interaction inhibitors, dose response, miRNA deadenylation inhibitor project, biochemical, fluorescence polarization, Cy5-PAM2 peptide, secondary (AID 602260)", "assay_type": "functional", "details": "read-out: IC50_Mean"}}, "note": "Activity calls are given as the source filed them.", "data": [{"smiles": "O=C(O)c1cc(-c2ccc(/C=N/n3cnnc3)o2)ccc1O", "values": [{"measurement": "IC50", "setting": "[1]", "result": "> 100 µM (not active)"}]}, {"smiles": "COC(=O)c1sccc1NS(=O)(=O)c1ccc(F)cc1F", "values": [{"measurement": "EC50", "setting": "[2]", "result": "2.94 µM (active)"}]}, {"smiles": "Cc1oncc1C(=O)Nc1ccc(C(F)(F)F)cc1", "note": "[LEFLUNOMIDE]", "values": [{"measurement": "EC50", "setting": "HT-1080", "result": "> 50 µM (not active)"}, {"measurement": "EC50", "setting": "[3]", "result": "0.84 µM (active)"}, {"measurement": "AC50", "setting": "Cytochrome P450 2C19", "result": "15.8 µM (inconclusive)"}]}, {"smiles": "CCN(CC)C(=S)NC(=O)c1ccc(OC)c(Br)c1", "values": [{"measurement": "EC50", "setting": "[2]", "result": "0.66 µM (active)"}]}, {"smiles": "CN(C)S(=O)(=O)c1ccc(C(=O)Oc2cc(O)nc3ccccc23)cc1", "values": [{"measurement": "IC50", "setting": "Prothrombin", "result": "0.812 µM (active)"}]}, {"smiles": "C[C@H](CO)N1C[C@H](C)[C@H](CN(C)S(=O)(=O)c2ccc(Cl)cc2)OCc2ccccc2-c2c(n(C)c3ccccc23)C1=O", "values": [{"measurement": "AC50", "setting": "[4]", "result": "0.193 µM (active)"}, {"measurement": "AC50", "setting": "[5]", "result": "35.5 µM (active)"}, {"measurement": "AC50", "setting": "[6]", "result": "< 0.35 µM (active)"}, {"measurement": "EC50", "setting": "HEK293 [7]", "result": "> 59.7 µM (inactive)"}, {"measurement": "IC50", "setting": "[8]", "result": "9.56 µM (active)"}, {"measurement": "AC50", "setting": "Paired box protein Pax-8", "result": "4.86 µM (active)"}, {"measurement": "IC50", "setting": "[9]", "result": "> 69.5 µM (inactive)"}, {"measurement": "EC50", "setting": "HEK293 [10]", "result": "> 59.7 µM (inactive)"}, {"measurement": "AC50", "setting": "[11]", "result": "41.6 µM (active)"}, {"measurement": "AC50", "setting": "[12]", "result": "0.129 µM (active)"}, {"measurement": "AC50", "setting": "[13]", "result": "62.3 µM (active)"}, {"measurement": "AC50", "setting": "[14]", "result": "26.2 µM (active)"}, {"measurement": "AC50", "setting": "[15]", "result": "0.0741 µM (active)"}]}, {"smiles": "CC1CCN(c2ccc3c(c2)S(=O)(=O)c2cccc(C(=O)NC4CC4)c2C3=O)CC1", "values": [{"measurement": "IC50", "setting": "[16]", "result": "22.6 µM (not active)"}, {"measurement": "IC50", "setting": "Insulin-degrading enzyme", "result": "> 55.9 µM (not active)"}]}, {"smiles": "O=C(NC(=S)Nc1nc(-c2ccccc2)cs1)c1cncc(Br)c1", "values": [{"measurement": "EC50", "setting": "[2]", "result": "11.2 µM (active)"}, {"measurement": "IC50", "setting": "[17]", "result": "> 66 µM (inactive)"}, {"measurement": "IC50", "setting": "[18]", "result": "> 66 µM (inactive)"}]}]}
